Reference: paper PMC11620506, “Inhibition of endocytic uptake of severe acute respiratory syndrome coronavirus 2 and endo-lysosomal acidification by diphenoxylate” (Antimicrobial Agents and Chemotherapy, 2024)

How the values were obtained:
[1] = system: SARS-CoV-2 Alpha, GR(B.1.1.7), hCoV-19/Korea/KDCA51463/2021; conditions: Vero cells
[2] = system: SARS-CoV-2 Beta, GH(B.1.351), hCoV-19/Korea/KDCA55905/2021; conditions: Vero cells
[3] = system: SARS-CoV-2 Gamma, GR(P.1), hCoV-19/Korea/KDCA95637/2021; conditions: for SI, ratio of CC50 to EC50: Gamma, Vero cells
[4] = system: SARS-CoV-2 Delta, G(B.1.617.2), hCoV-19/Korea/KDCA119861/2021; conditions: Vero cells
[5] = system: SARS-CoV-2 Omicron, GRA(B.1.1.529), hCoV-19/Korea/KDCA447321/2021; conditions: Vero cells
[6] = system: SARS-CoV-2 Alpha, GR(B.1.1.7), hCoV-19/Korea/KDCA51463/2021; assay: microbe, parasite or virus in culture; conditions: Severe acute respiratory syndrome coronavirus 2, Vero
[7] = system: SARS-CoV-2 Beta, GH(B.1.351), hCoV-19/Korea/KDCA55905/2021; assay: microbe, parasite or virus in culture; conditions: Severe acute respiratory syndrome coronavirus 2, Vero
[8] = system: SARS-CoV-2 Gamma, GR(P.1), hCoV-19/Korea/KDCA95637/2021; assay: microbe, parasite or virus in culture; conditions: Severe acute respiratory syndrome coronavirus 2, Vero
[9] = system: SARS-CoV-2 Delta, G(B.1.617.2), hCoV-19/Korea/KDCA119861/2021; assay: microbe, parasite or virus in culture; conditions: Severe acute respiratory syndrome coronavirus 2, Vero
[10] = system: SARS-CoV-2 Omicron, GRA(B.1.1.529), hCoV-19/Korea/KDCA447321/2021; assay: microbe, parasite or virus in culture; conditions: Severe acute respiratory syndrome coronavirus 2, Vero

Structure (SMILES)	SI, ratio of CC50 to EC50 [1]	SI, ratio of CC50 to EC50 [2]	potency relative to remdesivir (times more potent) [3]	SI, ratio of CC50 to EC50 [3]	SI, ratio of CC50 to EC50 [4]	SI, ratio of CC50 to EC50 [5]	EC50 [6] [µM]	EC50 [7] [µM]	EC50 [8] [µM]	EC50 [9] [µM]	EC50 [10] [µM]
CCOC(=O)C1(c2ccccc2)CCN(CCC(C#N)(c2ccccc2)c2ccccc2)CC1 [Diphenoxylate, diphenoxylate]	> 52.5	> 20.4	up to 6.5 times	> 68.0	> 36.2	> 31.3	1.9 ± 0.2	4.9 ± 0.3	1.5 ± 0.1	2.8 ± 0.6	3.2 ± 0.6
CCC(CC)COC(=O)[C@H](C)N[P@](=O)(OC[C@H]1O[C@@](C#N)(c2ccc3c(N)ncnn23)[C@H](O)[C@@H]1O)Oc1ccccc1 [RDV, remdesivir]	–	> 8.2	–	> 10.3	> 23.6	> 60.7	7 ± 1	12.2 ± 0.4	9.7 ± 0.7	4.2	1.6 ± 0.5
